Measured values taken from paper PMC3893156 (Molecular Genetics & Genomic Medicine, 2013).
Substitutions are numbered along the chain they refer to. Blank lines part the entries; values can stand above or below the compound they belong to.

Legend:
[1] = molecular target: T1, Phosphomannomutase 2 (wt-PMM2) (Homo sapiens, UniProt O15305); assay: activation of purified enzyme; type: biochemical
T1 sequence (O15305 1-246): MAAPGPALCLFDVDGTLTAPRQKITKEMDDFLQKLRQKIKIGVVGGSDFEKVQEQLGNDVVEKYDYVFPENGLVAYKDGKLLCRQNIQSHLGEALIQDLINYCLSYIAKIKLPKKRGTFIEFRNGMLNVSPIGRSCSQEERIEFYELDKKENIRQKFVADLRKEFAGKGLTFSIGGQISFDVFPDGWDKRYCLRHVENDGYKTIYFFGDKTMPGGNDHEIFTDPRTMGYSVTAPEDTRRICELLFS

[2] = molecular target: T2, Phosphomannomutase 2 (F119L-PMM2) (Homo sapiens, UniProt O15305, F119L); assay: activation of purified enzyme; type: biochemical
T2 sequence (O15305 1-246 F119L): T1 sequence (O15305 1-246) with F119L

[3] = molecular target: T1, Phosphomannomutase 2 (wt-PMM2); assay: thermal shift, size exclusion chromatography; type: binding
[4] = molecular target: T1, Phosphomannomutase 2 (wt-PMM2); assay: thermal shift assay; type: binding

EC50 [1]: 10 µM
EC50 [2]: 36 µM
SMILES: O=P(O)(O)OC[C@H]1O[C@H](OP(=O)(O)O)[C@H](O)[C@@H](O)[C@@H]1O [Glc-1,6-P2, glucose-1,6-bisphosphate]

SMILES: O=P(O)(O)OC[C@H]1OC(O)[C@H](O)[C@@H](O)[C@@H]1O (stereo partly drawn) [Glc-6-P, D-glucose 6-phosphate]
thermal shift, size exclusion chromatography (dimer stabilization) [3]: Glc-1-P and Glc-6-P produce a small, but statistically significant increase of the midpoint temperature

SMILES: O=P(O)(O)OC[C@H]1O[C@H](OP(=O)(O)O)[C@@H](O)[C@@H](O)[C@@H]1O [Man-1,6-P2, mannose 1,6-bisphosphate]
thermal shift assay [4]: Glc-1,6-P2 is slightly more effective than Man-1,6-P2 (Table S1)
